Read-outs that look alike come from different tables or passages of the source.
How the values were obtained:
[1] = molecular target: rat α4β2 nAChR subtype (Rattus norvegicus (Rat), UniProt P09483+P12390); assay: Radioligand ([3H]nicotine) binding at α4β2 nAChR, rat cortex membranes; conditions: [3H]nicotine 5 nM, rat cortex membranes
Description: Preparation of Membranes from Rat Cortex:
(§1) Rats (female, Sprague-Dawley), weighing 150-250 g, were maintained on a 12 h light/dark cycle and were allowed free access to water and food supplied by PMI Nutrition International, Inc. Animals were anesthetized with 70% CO2, and then decapitated. Brains were removed and placed on an ice-cold platform. […] The homogenate was centrifuged at 18,000×g for 20 min at 4° C. and the resulting pellet was re-suspended in 20 volumes of ice-cold water. After 60 min incubation on ice, a new pellet was collected by centrifugation at 18,000×g for 20 min at 4° C. The final pellet was re-suspended in 10 volumes of buffer and stored at −20° C.
(§2) On the day of the assay, the frozen membranes were thawed and spun at 48,000×g for 20 min. The supernatant was decanted and discarded. The pellet was resuspended in Dulbecco's phosphate buffered saline (PBS, Life Technologies) pH 7.4 and homogenized with the Polytron for 6 seconds. Protein concentrations were determined using a Pierce BCA Protein Assay Kit, with bovine serum albumin as the standard (Pierce Chemical Company, Rockford, Ill.).
(§3) Tissue was rinsed 3 times in PBS, pH 7.4. Scintillation fluid was added to filters containing the washed tissue and allowed to equilibrate.
(§4) Data were expressed as disintegrations per minute (DPMs). Within each assay, each point had 2-3 replicates. The replicates for each point were averaged and plotted against the log of the drug concentration.

[2] = molecular target: human α4β2 nAChR subtype (Homo sapiens (Human), UniProt P17787+P43681); assay: Radioligand ([3H]nicotine) binding at α4β2 nAChR, SH-EP1/human α4β2 clonal cell membranes
human α4β2 nAChR subtype, sequence (P43681 29-627): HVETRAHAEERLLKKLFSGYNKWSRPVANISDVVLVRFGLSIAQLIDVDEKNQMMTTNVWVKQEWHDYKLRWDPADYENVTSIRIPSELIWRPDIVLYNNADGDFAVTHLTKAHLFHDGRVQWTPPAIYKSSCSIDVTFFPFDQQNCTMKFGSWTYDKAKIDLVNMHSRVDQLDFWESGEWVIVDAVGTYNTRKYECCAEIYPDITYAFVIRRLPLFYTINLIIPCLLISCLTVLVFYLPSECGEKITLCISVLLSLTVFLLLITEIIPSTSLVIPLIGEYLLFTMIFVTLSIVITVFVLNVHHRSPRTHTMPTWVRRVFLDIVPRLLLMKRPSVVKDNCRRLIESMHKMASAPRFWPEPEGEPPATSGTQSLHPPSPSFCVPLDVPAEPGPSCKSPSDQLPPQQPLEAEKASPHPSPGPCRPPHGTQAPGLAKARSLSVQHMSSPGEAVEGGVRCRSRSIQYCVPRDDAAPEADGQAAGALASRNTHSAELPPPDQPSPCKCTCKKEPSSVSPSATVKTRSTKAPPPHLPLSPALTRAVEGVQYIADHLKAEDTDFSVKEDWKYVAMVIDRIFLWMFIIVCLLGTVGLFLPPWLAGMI
human α4β2 nAChR subtype, sequence (P17787 26-502): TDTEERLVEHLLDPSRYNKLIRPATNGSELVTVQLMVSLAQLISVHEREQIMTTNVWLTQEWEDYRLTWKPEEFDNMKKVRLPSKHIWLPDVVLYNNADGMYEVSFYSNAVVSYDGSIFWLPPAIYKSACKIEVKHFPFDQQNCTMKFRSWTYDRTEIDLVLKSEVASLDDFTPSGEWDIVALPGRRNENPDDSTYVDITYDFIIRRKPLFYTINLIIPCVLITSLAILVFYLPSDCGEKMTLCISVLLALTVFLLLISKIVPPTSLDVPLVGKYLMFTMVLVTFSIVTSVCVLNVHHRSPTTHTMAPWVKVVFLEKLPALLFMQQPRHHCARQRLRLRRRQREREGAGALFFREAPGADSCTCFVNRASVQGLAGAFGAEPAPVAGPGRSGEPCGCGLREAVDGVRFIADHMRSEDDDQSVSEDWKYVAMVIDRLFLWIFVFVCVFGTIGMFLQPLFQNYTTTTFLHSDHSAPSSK
Description: Preparation of Membranes from SH-EP1/Human α4β2 Clonal Cells:
Cell pellets from 40 150 mm culture dishes were pooled, and homogenized by Polytron (Kinematica GmbH, Switzerland) in 20 milliliters of ice-cold preparative buffer. The homogenate was centrifuged at 48,000 g for 20 minutes at 4° C. The resulting pellet was re-suspended in 20 mL of ice-cold preparative buffer and stored at −20° C.
as §2, §3, §4

[3] = molecular target: α7 nAChR subtype (Rattus norvegicus (Rat), UniProt Q05941); assay: Radioligand ([3H]MLA) binding at α7 nAChR, rat hippocampus membranes
α7 nAChR subtype, sequence (Q05941 23-502): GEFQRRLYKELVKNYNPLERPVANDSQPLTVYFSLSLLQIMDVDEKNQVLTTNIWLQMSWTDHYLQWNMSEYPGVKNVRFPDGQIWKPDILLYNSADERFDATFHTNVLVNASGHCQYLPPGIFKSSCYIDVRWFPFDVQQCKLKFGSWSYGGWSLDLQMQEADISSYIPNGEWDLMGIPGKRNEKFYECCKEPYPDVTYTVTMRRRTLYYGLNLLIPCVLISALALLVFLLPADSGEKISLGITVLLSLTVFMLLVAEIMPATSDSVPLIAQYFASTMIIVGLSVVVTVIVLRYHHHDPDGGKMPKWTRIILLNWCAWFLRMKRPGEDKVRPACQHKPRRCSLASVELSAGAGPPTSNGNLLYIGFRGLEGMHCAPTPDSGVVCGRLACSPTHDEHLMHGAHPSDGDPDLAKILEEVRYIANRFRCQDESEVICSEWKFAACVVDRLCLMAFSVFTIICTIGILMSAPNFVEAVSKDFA
Description: as §1, with “CO2,” for “CO2, and”, “in 10” for “in 20”
The binding of [^3H]MLA was measured using a modification of the methods of Davies et al., Neuropharmacol. […] [^3H]MLA (Specific Activity=25-35 Ci/mmol) was obtained from Tocris. The binding of [^3H]MLA was determined using a 2 h incubation at 21° C. Incubations were conducted in 48-well micro-titre plates and contained about 200 μg of protein per well in a final incubation volume of 300 μL. The incubation buffer was PBS and the final concentration of [^3H]MLA was 5 nM. The binding reaction was terminated by filtration of the protein containing bound ligand onto glass fiber filters (GF/B, Brandel) using a Brandel Tissue Harvester at room temperature. […] Each filter was washed with PBS (3×1 mL) at room temperature. Non-specific binding was determined by inclusion of 50 μM non-radioactive MLA in selected wells.
The inhibition of [^3H]MLA binding by test compounds was determined by including seven different concentrations of the test compound in selected wells. Each concentration was replicated in triplicate. IC50 values were estimated as the concentration of compound that inhibited 50 percent of specific [^3H]MLA binding.

[4] = tested on: object recognition in rats; assay: Novel object recognition (NOR) task; assay type: in vivo, rat; conditions: oral
Description: The novel object recognition (NOR) task was performed in accord with the description of Ennaceur and Delacour Behav. Brain Res. 100: 85-92 (1988).

[5] = [3H]nicotine 5 nM, SH-EP1/human α4β2 membranes, read-out: Human α4β2 Ki
[6] = did not bind sufficiently in HTS at α7 to warrant Ki determination
[7] = [3H]MLA 5 nM, rat hippocampus membranes

rat α4β2 nAChR subtype, sequence (P09483 31-630): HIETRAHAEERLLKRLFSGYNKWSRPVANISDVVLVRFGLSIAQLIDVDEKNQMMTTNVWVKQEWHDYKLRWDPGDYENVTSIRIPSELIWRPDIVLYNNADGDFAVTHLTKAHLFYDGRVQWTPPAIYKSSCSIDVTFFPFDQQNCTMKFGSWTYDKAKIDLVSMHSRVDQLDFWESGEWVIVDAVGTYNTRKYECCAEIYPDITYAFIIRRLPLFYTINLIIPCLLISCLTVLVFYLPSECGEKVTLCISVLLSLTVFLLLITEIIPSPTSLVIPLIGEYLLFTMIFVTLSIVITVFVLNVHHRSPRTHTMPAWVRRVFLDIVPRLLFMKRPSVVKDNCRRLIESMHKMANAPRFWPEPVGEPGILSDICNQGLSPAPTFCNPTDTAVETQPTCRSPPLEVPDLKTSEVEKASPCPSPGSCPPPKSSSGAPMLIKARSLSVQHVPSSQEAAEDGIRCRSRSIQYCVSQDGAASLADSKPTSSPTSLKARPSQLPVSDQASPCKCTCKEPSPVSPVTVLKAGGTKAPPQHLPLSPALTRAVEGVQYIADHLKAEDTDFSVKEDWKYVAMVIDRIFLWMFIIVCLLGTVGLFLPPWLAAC
rat α4β2 nAChR subtype, sequence (P12390 25-500): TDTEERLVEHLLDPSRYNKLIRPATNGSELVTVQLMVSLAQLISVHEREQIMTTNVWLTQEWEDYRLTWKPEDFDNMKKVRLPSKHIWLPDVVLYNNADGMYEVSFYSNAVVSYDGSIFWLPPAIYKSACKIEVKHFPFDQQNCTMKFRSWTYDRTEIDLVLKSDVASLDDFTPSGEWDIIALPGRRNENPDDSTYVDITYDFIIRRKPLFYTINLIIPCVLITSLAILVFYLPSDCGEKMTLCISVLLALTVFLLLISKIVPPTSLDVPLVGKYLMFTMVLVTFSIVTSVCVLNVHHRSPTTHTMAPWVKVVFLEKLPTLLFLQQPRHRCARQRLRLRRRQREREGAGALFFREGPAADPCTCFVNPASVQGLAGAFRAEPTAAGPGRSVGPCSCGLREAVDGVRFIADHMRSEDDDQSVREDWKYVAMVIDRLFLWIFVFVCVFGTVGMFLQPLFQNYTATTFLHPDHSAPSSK

| Compound | Ki [1] | Ki [2, 5] | α7 high through-put screening outcome (Ki not determined) [3, 6] | other results |
| --- | --- | --- | --- | --- |
| O=C(c1ccncc1)N1CC2CNCC2C1 (centres unmarked) | 26 nM | 160 nM | ND; failed HTS |  |
| Cc1nocc1C(=O)N1CC2CNCC2C1 (centres unmarked) | 24 nM | 14 nM |  | Ki [3, 7]: 56 µM |
| Cc1cc(C(=O)N2CC3CNCC3C2)on1 (centres unmarked) | 32 nM | 31 nM | ND; failed HTS |  |
| Cc1occc1C(=O)N1CC2CNCC2C1 (centres unmarked) | 61 nM | 29 nM |  | Ki [3, 7]: 160 µM |
| O=CNc1ccc(C(=O)N2CC3CNCC3C2)o1 (centres unmarked) | 53 nM | 63 nM | ND; failed HTS |  |
| COc1ccoc1C(=O)N1CC2CNCC2C1 (centres unmarked) | 353 nM | 100 nM | ND; failed HTS |  |
| Cc1cc(C(F)(F)F)c(C(=O)N2CC3CNCC3C2)o1 (centres unmarked) | 1000 nM | 45 nM | ND; failed HTS |  |
| O=C(c1cc(C(F)(F)F)co1)N1CC2CNCC2C1 (centres unmarked) | 320 nM | 36 nM | ND; failed HTS |  |
| C=Cc1ccoc1C(=O)N1CC2CNCC2C1 (centres unmarked) | 140 nM | 51 nM | ND; failed HTS |  |
| CCCCC#Cc1coc(C(=O)N2CC3CNCC3C2)c1 (centres unmarked) | 43 nM | 21 nM | ND; failed HTS |  |
| O=C(c1occc1Cl)N1CC2CNCC2C1 (centres unmarked) | 2.8 nM | 2.4 nM | ND; failed HTS |  |
| O=C(c1ccc(F)o1)N1CC2CNCC2C1 (centres unmarked) | 8.3 nM | 16 nM | ND; failed HTS |  |
| O=C(c1occc1F)N1CC2CNCC2C1 (centres unmarked) | 35 nM | 27 nM |  | α7 high through-put screening outcome (Ki not determined) [3]: ND; failed HTS |
| O=C(c1cc(Cl)co1)N1CC2CNCC2C1 (centres unmarked) | 21 nM | 9.7 nM | ND; failed HTS |  |
| O=C(c1ccon1)N1CC2CNCC2C1 (centres unmarked) | 89 nM | 90 nM | ND; failed HTS |  |
| O=C(c1cc(F)co1)N1CC2CNCC2C1 (centres unmarked) | 36 nM | 21 nM | ND; failed HTS |  |
| C#Cc1ccc(C(=O)N2CC3CNCC3C2)o1 (centres unmarked) | 140 nM | 48 nM | ND; failed HTS |  |
| N#Cc1ccc(C(=O)N2CC3CNCC3C2)o1 (centres unmarked) | 50 nM |  | ND; failed HTS | Ki ([2]; read-out: Human α4β2 Ki): 40 nM |
| O=C(c1ccno1)N1CC2CNCC2C1 (centres unmarked) | 43 nM | 69 nM |  | α7 high through-put screening outcome (Ki not determined) [3]: ND; failed HTS |
| O=C(c1ccncc1)N1CC2CNCC(C2)C1 | 110 nM | 18 nM |  | Ki [3, 7]: 1.7 µM |
| O=C(c1occc1Br)N1CC2CNCC(C2)C1 | 79 nM |  | ND; failed HTS | Ki ([2]; read-out: Human α4β2 Ki): 17 nM |
| Cc1ccc(C(=O)N2CC3CNCC(C3)C2)o1 | 100 nM | 42 nM |  | α7 high through-put screening outcome (Ki not determined) [3]: ND; failed HTS |
| O=C(c1cc(Br)no1)N1CC2CNCC(C2)C1 | 5.9 nM |  | ND; failed HTS | Ki ([2]; read-out: Human α4β2 Ki): 18 nM |

| Compound | Ki [1] | Ki [2, 5] | α7 high through-put screening outcome (Ki not determined) [3, 6] | other results |
| --- | --- | --- | --- | --- |
| CC(=O)Nc1ccc(C(=O)N2CC3CNCC(C3)C2)o1 | 87 nM | 210 nM | ND; failed HTS |  |
| Cc1ncoc1C(=O)N1CC2CNCC(C2)C1 | 20 nM | 64 nM | ND; failed HTS |  |
| Cc1nocc1C(=O)N1CC2CNCC(C2)C1 | 9.5 nM | 21 nM | ND; failed HTS |  |
| O=C(c1ccc(F)o1)N1CC2CNCC(C2)C1 | 6.4 nM |  | ND; failed HTS | Ki ([2]; read-out: Human α4β2 Ki): 4.6 nM |
| O=C(c1cc(-c2cc(F)cc(F)c2)co1)N1CC2CNCC(C2)C1 | 6.3 nM | 23 nM | ND; failed HTS |  |
| O=C(c1cc(-c2ccoc2)co1)N1CC2CNCC(C2)C1 | 12 nM | 35 nM | ND; failed HTS |  |
| O=C(c1occc1F)N1CC2CNCC(C2)C1 | 110 nM | 57 nM | ND; failed HTS |  |
| N#Cc1ccoc1C(=O)N1CC2CNCC(C2)C1 | 110 nM | 31 nM | ND; failed HTS |  |
| COc1ccoc1C(=O)N1CC2CNCC(C2)C1 | 560 nM |  | ND; failed HTS | Ki ([2]; read-out: Human α4β2 Ki): 28 nM |
| O=C(c1cnco1)N1CC2CNCC(C2)C1 | 28 nM | 26 nM | ND; failed HTS |  |
| O=C(c1cc(F)co1)N1CC2CNCC(C2)C1 | 28 nM | 14 nM | ND; failed HTS |  |
| C#Cc1ccc(C(=O)N2CC3CNCC(C3)C2)o1 | 220 nM | 47 nM | ND; failed HTS |  |
| Cc1cc(F)c(C(=O)N2CC3CNCC(C3)C2)o1 | 500 nM | 62 nM | ND; failed HTS |  |
| O=C(c1ncco1)N1CC2CNCC(C2)C1 | 370 nM | 85 nM | ND; failed HTS |  |
| N#Cc1coc(C(=O)N2CC3CNCC(C3)C2)c1 | 27 nM |  | ND; failed HTS | Ki [2]: 23 nM |
| O=C(c1cc(Br)co1)N1CC2CNCC(C2)C1 | 12 nM |  |  | Ki ([2]; read-out: Human α4β2 Ki): 1.7 nM; α7 high through-put screening outcome (Ki not determined) [3]: ND; failed HTS |
| Cc1oncc1C(=O)N1CC2CNCC(C2)C1 | 65 nM |  | ND; failed HTS | Ki ([2]; read-out: Human α4β2 Ki): 31 nM |
| O=C(c1ccno1)N1CC2CNCC(C2)C1 | 52 nM | 30 nM | ND; failed HTS |  |
| O=C(c1ccc(Cl)o1)N1CC2CNCC2C1 (centres unmarked) [N-(5-chlorofuran-2-ylcarbonyl)-3,7-diazabicyclo[3.3.0]octane] | 33 nM | 28 nM |  | Ki [3, 7]: 91 µM; activity in object recognition (OR) ([4]; 0.1 mg/kg (FIG. 1)): active |
| O=C(c1ccc(Cl)o1)N1CC2CNCC(C2)C1 [N-(5-chlorofuran-2-ylcarbonyl)-3,7-diazabicyclo[3.3.1]nonane] | 15 nM | 7.3 nM |  | Ki [3, 7]: 120 µM; activity in object recognition (OR) ([4]; 0.3 mg/kg (FIG. 2)): active |
| O=C(c1ccco1)N1CC2CNCC2C1 (centres unmarked) [N-(furan-2-ylcarbonyl)-3,7-diazabicyclo[3.3.0]octane] | 20 nM | 33 nM |  | Ki [3, 7]: 13 µM |
| O=C(c1ccco1)N1CC2CNCC(C2)C1 [N-(furan-2-ylcarbonyl)-3,7-diazabicyclo[3.3.1]nonane] | 31 nM | 9.9 nM |  | Ki [3]: 15 µM |

— patent US8921410B2, “Nicotinic acetylcholine receptor sub-type selective amides of diazabicycloalkanes” (Targacept, Inc., priority 2006, dated 2014)
